The experiment has as its target Full length human recombinant PIKFYVE (Homo sapiens (Human), UniProt Q9Y2I7). The experiment is described as follows: Inhibition of PIKfyve (microfluidic electrophoresis kinase assay). The class given is biochemical. To be noted: 2 nM enzyme, PI3P/PS substrate, 3 h at room temperature, 12 concentrations. Here is the method:
Full length human recombinant PIKFYVE expressed in baculovirus expression system as N-terminal GST-fusion protein (265 kDa) was obtained from Carna Biosciences (Kobe, Japan). The kinase substrate was prepared by mixing and sonicating fluorescently-labeled phosphatidylinositol 3-phosphate (PI3P) with phospho-L-serine (PS) at a 1:10 ratio in 50 mM HEPES buffer pH7.5.
The kinase reactions were assembled in 384-well plates (Greiner) in a total volume of […] as follows. Kinase protein was pre-diluted in an assay buffer comprising 25 mM HEPES, pH 7.5, 1 mM DTT, 2.5 mM MgCl2, and 2.5 mM MnCl2, and 0.005% Triton X-100, and dispensed into a 384-well plate (10 μL per well). Test compounds were serially pre-diluted in DMSO and added to the protein samples by acoustic dispensing (Labcyte Echo). The concentration of DMSO was equalized to 1% in all samples. All test compounds were tested at 12 concentrations. Apilimod was used as a reference compound and was tested in identical manner in each assay plate. Control samples (0%-inhibition, in the absence of inhibitor, DMSO only) and 100%-inhibition (in the absence of enzyme) were assembled in replicates of four and were used to calculate %-inhibition in the presence of compounds. The reactions were initiated by addition of 10 μL of 2× PI3P/PS substrate supplemented with ATP. The final concentration of enzyme was 2 nM, the final concentration of ATP was 10 mM, and the final concentration of PI3P/PS substrate was 1 μM (PI3P). The kinase reactions were allowed to proceed for 3 h at room temperature. Following incubation, the reactions were quenched by addition of […] of termination buffer (100 mM HEPES, pH 7.5, 0.01% Triton X-100, 20 mM EDTA). Terminated plates were analyzed on a microfluidic electrophoresis instrument (Caliper LabChip® 3000, Caliper Life Sciences/Perkin Elmer). The change in the relative fluorescence intensity of the PI (3) P substrate and PI (3,5) P product peaks was measured. The activity in each test sample was determined as the product to sum ratio (PSR): P/(S+P), where P is the peak height of the product, and S is the peak height of the substrate. Percent inhibition (Pinh) was determined using the following equation: Pinh=(PSR0% inh−PSRcompound)/(PSR0% inh−PSR100% inh)*100 in which PSRcompound is the product/sum ratio in the presence of compound, PSR0% inh is the product/sum ratio in the absence of compound, and the PSR100% inh is the product/sum ratio in the absence of the enzyme.
Full length human recombinant PIKFYVE, sequence (Q9Y2I7 whole entry, the tested form may be a part): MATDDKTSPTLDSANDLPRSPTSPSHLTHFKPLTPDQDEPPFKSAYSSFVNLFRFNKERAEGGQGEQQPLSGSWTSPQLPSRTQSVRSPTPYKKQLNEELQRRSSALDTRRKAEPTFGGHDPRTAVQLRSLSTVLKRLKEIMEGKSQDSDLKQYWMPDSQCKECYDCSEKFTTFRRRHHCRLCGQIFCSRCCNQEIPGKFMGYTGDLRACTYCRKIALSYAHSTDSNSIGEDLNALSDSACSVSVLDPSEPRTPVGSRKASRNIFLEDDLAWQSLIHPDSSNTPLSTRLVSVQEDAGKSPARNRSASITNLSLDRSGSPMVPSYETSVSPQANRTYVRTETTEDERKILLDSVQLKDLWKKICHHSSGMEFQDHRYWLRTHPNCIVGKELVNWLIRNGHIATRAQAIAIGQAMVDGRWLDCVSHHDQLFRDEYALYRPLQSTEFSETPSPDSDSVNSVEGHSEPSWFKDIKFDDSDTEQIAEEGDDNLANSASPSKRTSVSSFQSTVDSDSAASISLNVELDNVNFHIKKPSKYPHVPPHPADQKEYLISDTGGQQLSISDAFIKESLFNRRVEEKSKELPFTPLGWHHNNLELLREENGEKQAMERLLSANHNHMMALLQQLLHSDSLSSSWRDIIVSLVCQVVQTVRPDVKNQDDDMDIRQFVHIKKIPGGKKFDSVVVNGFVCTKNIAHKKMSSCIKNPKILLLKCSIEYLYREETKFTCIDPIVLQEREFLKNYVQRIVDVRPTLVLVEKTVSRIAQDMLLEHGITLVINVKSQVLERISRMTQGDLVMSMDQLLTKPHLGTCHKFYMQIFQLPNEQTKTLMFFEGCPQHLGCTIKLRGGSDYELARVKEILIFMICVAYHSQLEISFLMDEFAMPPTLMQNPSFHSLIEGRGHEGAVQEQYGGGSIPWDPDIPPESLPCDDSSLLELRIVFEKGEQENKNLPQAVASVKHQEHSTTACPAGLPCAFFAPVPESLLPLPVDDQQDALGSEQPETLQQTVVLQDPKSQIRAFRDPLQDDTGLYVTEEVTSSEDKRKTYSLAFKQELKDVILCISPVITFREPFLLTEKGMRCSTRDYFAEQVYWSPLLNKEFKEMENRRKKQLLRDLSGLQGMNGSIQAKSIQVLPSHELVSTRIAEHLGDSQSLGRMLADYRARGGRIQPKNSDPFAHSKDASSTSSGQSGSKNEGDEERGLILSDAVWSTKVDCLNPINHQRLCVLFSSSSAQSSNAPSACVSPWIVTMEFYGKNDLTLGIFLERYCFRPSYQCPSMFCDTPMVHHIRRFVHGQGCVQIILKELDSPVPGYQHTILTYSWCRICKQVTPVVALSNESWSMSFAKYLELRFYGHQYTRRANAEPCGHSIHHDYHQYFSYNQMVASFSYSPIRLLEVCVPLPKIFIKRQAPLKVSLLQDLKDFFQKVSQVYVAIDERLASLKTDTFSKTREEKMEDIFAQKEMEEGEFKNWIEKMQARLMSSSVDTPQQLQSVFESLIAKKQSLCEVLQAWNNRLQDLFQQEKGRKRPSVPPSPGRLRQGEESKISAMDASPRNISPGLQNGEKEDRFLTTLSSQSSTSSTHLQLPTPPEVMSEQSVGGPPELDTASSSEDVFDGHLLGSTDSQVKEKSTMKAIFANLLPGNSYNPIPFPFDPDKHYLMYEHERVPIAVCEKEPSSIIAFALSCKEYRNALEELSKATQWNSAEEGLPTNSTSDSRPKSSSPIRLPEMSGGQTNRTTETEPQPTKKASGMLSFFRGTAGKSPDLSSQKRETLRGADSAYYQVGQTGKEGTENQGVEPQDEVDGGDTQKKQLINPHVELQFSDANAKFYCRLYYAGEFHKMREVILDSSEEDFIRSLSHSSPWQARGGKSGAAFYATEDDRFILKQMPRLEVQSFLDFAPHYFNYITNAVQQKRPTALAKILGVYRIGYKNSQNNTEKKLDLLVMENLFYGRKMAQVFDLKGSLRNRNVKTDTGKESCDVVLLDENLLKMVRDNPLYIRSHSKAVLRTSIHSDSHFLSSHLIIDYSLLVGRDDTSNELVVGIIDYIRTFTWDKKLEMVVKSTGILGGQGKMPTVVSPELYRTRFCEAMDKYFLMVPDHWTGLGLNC
As usually defined, the IC50 is the concentration that inhibits the measured activity by half. For the compound `Cc1cccc(-c2ccn(-c3cc(N4CCOCC4)n4nc(-c5cc(C)nn5C)cc4n3)n2)c1` [Compound 84, 4-[2-(2,5-dimethylpyrazol-3-yl)-5-[3-(m-tolyl)pyrazol-1-yl]pyrazolo[1,5-a]pyrimidin-7-yl]morpholine], the IC50 stood at 2.6 nM. As to `Cn1ccc(-c2cc3nc(-n4ccc(-c5cccc(Cl)c5)n4)cc(N4CCOCC4)n3n2)n1` [Compound 101, 4-[5-[3-(3-chlorophenyl)pyrazol-1-yl]-2-(1-methylpyrazol-3-yl)pyrazolo[1,5-a]pyrimidin-7-yl]morpholine], the IC50 turned out to be 41 nM.

Take `Cc1cccc(-c2cnn(-c3cc(N4CCOCC4)n4nc(-c5cccnc5N)cc4n3)c2)c1` [Compound 59, 3-[7-morpholino-5-[4-(m-tolyl)pyrazol-1-yl]pyrazolo[1,5-a]pyrimidin-2-yl]pyridin-2-amine]: the IC50 was > 20000 nM. For the compound `Cn1cc(-c2cc3nc(-n4ccc(-c5ccccc5)n4)cc(N4CCOCC4)n3n2)cn1` [Compound 115, 4-[2-(1-methylpyrazol-4-yl)-5-(3-phenylpyrazol-1-yl)pyrazolo[1,5-a]pyrimidin-7-yl]morpholine], the IC50 was determined as 62.4 nM. For `COC(=O)NCc1cc2nc(-n3ccc(-c4ccccc4)n3)cc(N3CCOCC3)n2n1` [Compound 89, methyl N-[[7-morpholino-5-(3-phenylpyrazol-1-yl)pyrazolo[1,5-a]pyrimidin-2-yl]methyl]carbamate], the IC50 was determined as 1400 nM. As for `Cc1cccc(-c2ccn(-c3cc(N4CCOCC4)n4nc(C(=O)NOC5COC5)cc4n3)n2)c1` [Example 47, 7-morpholino-N-(oxetan-3-yloxy)-5-(3-(m-tolyl)-1H-pyrazol-1-yl)pyrazolo[1,5-a]pyrimidine-2-carboxamide], the IC50 came out at 122 nM. As for `c1ccc(-c2cnn(-c3cc(N4CCOCC4)n4nc(-c5ccncc5)cc4n3)c2)cc1` [Example 9, 4-[5-(4-phenylpyrazol-1-yl)-2-(4-pyridyl)pyrazolo[1,5-a]pyrimidin-7-yl]morpholine], the IC50 is > 10000 nM.

For the compound `Cc1cccc(-c2ccn(-c3cc(N4CCOCC4)n4nc(C(=O)N5CCC56COC6)cc4n3)n2)c1` [Example 46, (7-morpholino-5-(3-(m-tolyl)-1H-pyrazol-1-yl)pyrazolo[1,5-a]pyrimidin-2-yl) (6-oxa-1-azaspiro[3.3]heptan-1-yl)methanone], the IC50 stood at 113 nM. The figure for `Nc1cc(-c2ccccc2)nn1-c1cc(N2CCOCC2)n2nc(-c3ccncc3)cc2n1` [Example 7, 1-(7-morpholino-2-(pyridin-4-yl)pyrazolo[1,5-a]pyrimidin-5-yl)-3-phenyl-1H-pyrazol-5-amine] is 38.4 nM. Take `Nc1nccc(-c2cc3nc(-n4ccc(-c5ccccc5)n4)cc(N4CCOCC4)n3n2)n1` [Compound 104, 4-[7-morpholino-5-(3-phenylpyrazol-1-yl)pyrazolo[1,5-a]pyrimidin-2-yl]pyrimidin-2-amine]: the IC50 came out at 106 nM. Consider `Cc1cccc(-c2ccn(-c3cc(N4CCOCC4)n4nc(C(=O)NCCN(C)C)cc4n3)n2)c1` [Example 40, N-(2-(dimethylamino)ethyl)-7-morpholino-5-(3-(m-tolyl)-1H-pyrazol-1-yl)pyrazolo[1,5-a]pyrimidine-2-carboxamide], for which the IC50 worked out at 258 nM. Take `CCC(=O)NCc1cc2nc(-n3ccc(-c4ccccc4)n3)cc(N3CCOCC3)n2n1` [Compound 90]: the IC50 was 2160 nM. Consider `c1ccc(-c2ccn(-c3cc(N4CCOCC4)n4nc(-c5nccs5)cc4n3)n2)cc1` [Compound 114, 4-[5-(3-phenylpyrazol-1-yl)-2-thiazol-2-yl-pyrazolo[1,5-a]pyrimidin-7-yl]morpholine], for which the IC50 was 100 nM.

`Cn1ccc(-c2cc3nc(-n4ccc(-c5ccccc5)n4)cc(N4CCOCC4)n3n2)n1` [Compound 66, 4-[2-(1-methylpyrazol-3-yl)-5-(3-phenylpyrazol-1-yl)pyrazolo[1,5-a]pyrimidin-7-yl]morpholine]: the IC50 was found to be 104 nM.

Turning to `Cc1cc(-c2cc3nc(-n4ccc(-c5ccccc5)n4)cc(N4CCOCC4)n3n2)nn1C` [Compound 86, 4-[2-(1,5-dimethylpyrazol-3-yl)-5-(3-phenylpyrazol-1-yl)pyrazolo[1,5-a]pyrimidin-7-yl]morpholine], the IC50 amounted to 32.2 nM. In the case of `COCCNC(=O)c1cc2nc(-n3ccc(-c4cccc(C)c4)n3)cc(N3CCOCC3)n2n1` [Example 23, N-(2-methoxyethyl)-7-morpholino-5-(3-(m-tolyl)-1H-pyrazol-1-yl)pyrazolo[1,5-a]pyrimidine-2-carboxamide], the IC50 stood at 81.5 nM. Regarding `c1ccc(-c2cc(Nc3cc(N4CCOCC4)n4nc(-c5ccncc5)cc4n3)n[nH]2)cc1` [Example 2, 7-morpholino-N-(5-phenyl-1H-pyrazol-3-yl)-2-(4-pyridyl)pyrazolo[1,5-a]pyrimidin-5-amine], the IC50 was 967 nM. Consider `Cc1cc(-c2cc3nc(-n4ccc(-c5ccncc5)n4)cc(N4CCOCC4)n3n2)nn1CCN(C)C` [Compound 93, N,N-dimethyl-2-[5-methyl-3-[7-morpholino-5-[3-(4-pyridyl)pyrazol-1-yl]pyrazolo[1,5-a]pyrimidin-2-yl]pyrazol-1-yl]ethanamine], for which the IC50 is > 10000 nM. As for `CC(C)NC(=O)c1cc2nc(-n3cc(-c4ccccc4)cn3)cc(N3CCOCC3)n2n1` [Compound 80, N-isopropyl-7-morpholino-5-(4-phenylpyrazol-1-yl)pyrazolo[1,5-a]pyrimidine-2-carboxamide], the IC50 turned out to be 4390 nM. On to `Cc1cccc(-c2cnn(-c3cc(N4CCOCC4)n4nc(-c5ccncn5)cc4n3)c2)c1` [Compound 57, 4-[5-[4-(m-tolyl)pyrazol-1-yl]-2-pyrimidin-4-yl-pyrazolo[1,5-a]pyrimidin-7-yl]morpholine], for which the IC50 was determined as 3750 nM. As to `Cc1cccc(-c2cnn(-c3cc(N4CCOCC4)n4nc(C(=O)NC5CCOCC5)cc4n3)c2)c1` [Compound 56, 7-morpholino-5-[4-(m-tolyl)pyrazol-1-yl]-N-tetrahydropyran-4-yl-pyrazolo[1,5-a]pyrimidine-2-carboxamide], the IC50 is 3420 nM. For `c1ccc(-c2ccn(-c3cc(N4CCOCC4)n4nc(-c5ccncc5)cc4n3)n2)cc1` [Example 13, 4-[5-(3-phenylpyrazol-1-yl)-2-(4-pyridyl)pyrazolo[1,5-a]pyrimidin-7-yl]morpholine], the IC50 came out at 207 nM. As for `Cc1cccc(-c2ccn(-c3cc(N4CCOCC4)n4nc(C(=O)N[C@H]5CCN(C)C5)cc4n3)n2)c1` [Compound 48, N-[(3S)-1-methylpyrrolidin-3-yl]-7-morpholino-5-[3-(m-tolyl)pyrazol-1-yl]pyrazolo[1,5-a]pyrimidine-2-carboxamide], the figure is 41.3 nM; as for `c1cc(-c2ccn(-c3cc(N4CCOCC4)n4nc(-c5ccncc5)cc4n3)n2)ccn1` [Example 15, 4-[2-(4-pyridyl)-5-[3-(4-pyridyl)pyrazol-1-yl]pyrazolo[1,5-a]pyrimidin-7-yl]morpholine], 1100 nM; as for `Cc1ccccc1-c1cc(Nc2cc(N3CCOCC3)n3nc(-c4ccncc4)cc3n2)n[nH]1` [Example 3, 7-morpholino-N-[5-(o-tolyl)-1H-pyrazol-3-yl]-2-(4-pyridyl)pyrazolo[1,5-a]pyrimidin-5-amine], 3150 nM. Take `Cc1cc(-c2ccn(-c3cc(N4CCOCC4)n4nc(-c5cccnc5)cc4n3)n2)ccn1` [Compound 103, 4-[5-[3-(2-methyl-4-pyridyl)pyrazol-1-yl]-2-(3-pyridyl)pyrazolo[1,5-a]pyrimidin-7-yl]morpholine]: the IC50 is > 10000 nM.

Turning to `Cc1cc(Nc2cc(N3CCOCC3)n3nc(-c4ccncc4)cc3n2)n[nH]1` [Example 5, N-(5-methyl-1H-pyrazol-3-yl)-7-morpholino-2-(4-pyridyl)pyrazolo[1,5-a]pyrimidin-5-amine], the IC50 is > 10000 nM. As for `COc1cccc(-c2ccn(-c3cc(N4CCOCC4)n4nc(-c5cccnc5)cc4n3)n2)c1` [Compound 107, 4-[5-[3-(3-methoxyphenyl)pyrazol-1-yl]-2-(3-pyridyl)pyrazolo[1,5-a]pyrimidin-7-yl]morpholine], the IC50 was 7.1 nM. The figure for `Cc1cccc(-c2ccn(-c3cc(N4CCOCC4)n4nc(C(=O)NS(C)(=O)=O)cc4n3)n2)c1` [Example 35, N-(methylsulfonyl)-7-morpholino-5-(3-(m-tolyl)-1H-pyrazol-1-yl)pyrazolo[1,5-a]pyrimidine-2-carboxamide] is 422 nM.

For the origin of these results see patent publication US12486274B2, “Substituted pyrazolo-pyrimidines and uses thereof” (Verge Analytics, Inc., priority 2020, dated 2025).
